Test: Plasma concentration after subcutaneous injection in mice (pharmacokinetic profile)
Assay type: in vivo
Conditions: 50 mg/kg subcutaneous
Experimental: FIG. 5 is a graph showing the pharmacokinetic profile of ISIS 22023 following 50 mg/kg subcutaneous injection in mice. Plasma samples were analyzed at various time points using the oligonucleotide detection method of the present invention.
Detection of ISIS 22023 after injection in mice ISIS 22023 (50 mg/kg) was injected subcutaneously into mice and the plasma concentration was determined at various times post-injection by the method described in Example 1. […] The predicted and observed half lives corresponded very well.

**Q.** With “ISIS 2302: antisense oligonucleotide GCCCAAGCTGGCATCCGTCA (SEQ ID NO:2) (listed as DNA, chemistry not given here)” as the substance, how does the elimination half-life read?
**A.** very long

From patent publication US8163477B2, “Nuclease-based method for detecting and quantitating oligonucleotides” (Isis Pharmaceuticals, Inc, priority 2000, dated 2012)
